One test addresses T1, NOX1 (Homo sapiens, UniProt Q9Y5S8).
T1 construct: endogenous in cells; host or cells: HT29
T1 sequence (Q9Y5S8 1-564): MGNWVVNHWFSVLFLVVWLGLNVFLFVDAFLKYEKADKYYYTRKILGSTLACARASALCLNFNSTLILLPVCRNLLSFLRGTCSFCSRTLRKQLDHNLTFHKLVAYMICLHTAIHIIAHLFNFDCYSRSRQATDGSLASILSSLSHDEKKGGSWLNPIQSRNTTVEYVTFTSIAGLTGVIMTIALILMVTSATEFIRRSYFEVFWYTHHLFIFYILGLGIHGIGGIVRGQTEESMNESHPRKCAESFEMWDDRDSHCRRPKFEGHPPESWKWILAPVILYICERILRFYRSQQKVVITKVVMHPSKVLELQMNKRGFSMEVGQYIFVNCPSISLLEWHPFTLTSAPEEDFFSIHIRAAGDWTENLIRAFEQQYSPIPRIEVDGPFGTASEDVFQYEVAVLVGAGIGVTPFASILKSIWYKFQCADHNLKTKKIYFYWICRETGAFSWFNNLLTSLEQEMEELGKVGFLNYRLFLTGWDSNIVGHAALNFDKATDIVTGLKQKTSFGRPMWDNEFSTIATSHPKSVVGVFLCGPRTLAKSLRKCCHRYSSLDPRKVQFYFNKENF
T1 sequence (P13498 2-195 partner limits assumed): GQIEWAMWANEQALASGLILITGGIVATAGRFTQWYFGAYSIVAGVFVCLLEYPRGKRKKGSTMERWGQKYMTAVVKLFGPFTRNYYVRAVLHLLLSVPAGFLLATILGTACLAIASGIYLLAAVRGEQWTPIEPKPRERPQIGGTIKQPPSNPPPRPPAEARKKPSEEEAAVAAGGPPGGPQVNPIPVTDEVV
As to the kind of experiment: NOX1 HT29 cell-based assay (luminol/HRP luminescence). Particulars: HT-29, HT29 cells, DMSO = 0%, GKT137831 = 100%; for inhibition at 0.1 µM: 100 nM; for inhibition at 1 µM: 1000 nM. As to the method:
NOX1 HT29 Cell-Based Assay:
HT29 cells were cultured in T75 flask (Corning) and when 70-80% confluence was reached, cells were trypsinized, harvested in HBSS and counted. 1-2×10^5 cells were dispensed into individual wells in 70 μl final volume (96-well plates, white Corning). Cells were treated for 30-60 mins at 37° C. with 10 μl of GKT137831, DMSO and test compounds from their respective assay plates. This will correspond to a final concentration of 100 nM, 1000 nM GKT137831 or test compounds, and 0.1% DMSO. 20 μL of a mixture containing 100 μM luminol plus 0.4 units of HRP (final concentration) was added. Luminescence was quantified using a SpectraMax i3 Multiplate reader (Molecular Devices, Sunnyvale, Calif., USA). As designed, compounds that inhibit NOX1 activity will reduce cellular ROS production, leading to reduced probe-ROS interactions and reduced well luminescence. Compounds were tested in duplicate at a concentration of 100 nM and 1000 nM. DMSO and GKT137831 wells were applied as negative and positive controls, and the activities measured were set to 0% and 100%, respectively.

A further test deals with T2, NOX2 (Homo sapiens, UniProt P04839).
T2 construct: HL-60 cells, rich in NOX2 expression; endogenous in cells; host or cells: DMSO-differentiated HL-60
T2 sequence (P04839 2-570 limits assumed): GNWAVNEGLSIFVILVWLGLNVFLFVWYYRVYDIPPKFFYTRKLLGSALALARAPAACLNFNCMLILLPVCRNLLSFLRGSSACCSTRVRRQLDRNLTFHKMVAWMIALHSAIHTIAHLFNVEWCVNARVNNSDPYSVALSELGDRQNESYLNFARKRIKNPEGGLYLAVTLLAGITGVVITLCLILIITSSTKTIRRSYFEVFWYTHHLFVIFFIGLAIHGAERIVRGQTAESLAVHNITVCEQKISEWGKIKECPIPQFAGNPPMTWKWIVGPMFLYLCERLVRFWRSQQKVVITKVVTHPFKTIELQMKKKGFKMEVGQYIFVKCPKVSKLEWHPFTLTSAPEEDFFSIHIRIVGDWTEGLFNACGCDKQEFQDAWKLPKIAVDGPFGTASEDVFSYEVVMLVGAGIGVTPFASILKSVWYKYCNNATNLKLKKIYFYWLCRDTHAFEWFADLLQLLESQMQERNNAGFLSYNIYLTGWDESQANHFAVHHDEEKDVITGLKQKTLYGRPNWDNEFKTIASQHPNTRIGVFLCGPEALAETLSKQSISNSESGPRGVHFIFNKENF
T2 sequence (P13498 2-195 partner limits assumed): T1 sequence (P13498 2-195 partner limits assumed)
As to the kind of experiment: NOX2 HL60 cell-based assay (PMA oxidative burst, L012 chemiluminescence). Particulars: DMSO-differentiated HL-60 cells, PMA-stimulated; for inhibition at 1 µM: HL-60, 1000 nM; for inhibition at 0.1 µM: HL-60, 100 nM. The method, then:
NOX2 HL60 Cell-Based Assay:
HL-60 cells, rich in NOX2 expression, was stimulated to undergo oxidative burst by phorbol myristate acetate (PMA). The ROS produced during this process was measured using the O2^−-specific chemiluminescent probe L012. L012 was added to DMSO-differentiated HL-60 cell suspensions to a final concentration of 100 μM. Then, 80 μL aliquots of cell suspension (2.5×10^5 cells) were transferred to individual wells of a 96-well plate. Test compounds were directly added to the wells at the specified concentrations. Following a 30-60 mins incubation at 37° C. in the dark, the oxidative burst was initiated by the addition of 10 ng/mL PMA, and the chemiluminescence signal was recorded every 5 min over a period of 60 mins in a SpectraMax i3 Multiplate reader (Molecular Devices, Sunnyvale, Calif., USA). • NOX4 HEK293 Overexpression Cell-Based Assay: […]

The next test deals with T3, NOX4 (Homo sapiens, UniProt Q9NPH5).
T3 construct: expressed in transfected cells
T3 sequence (Q9NPH5 1-578): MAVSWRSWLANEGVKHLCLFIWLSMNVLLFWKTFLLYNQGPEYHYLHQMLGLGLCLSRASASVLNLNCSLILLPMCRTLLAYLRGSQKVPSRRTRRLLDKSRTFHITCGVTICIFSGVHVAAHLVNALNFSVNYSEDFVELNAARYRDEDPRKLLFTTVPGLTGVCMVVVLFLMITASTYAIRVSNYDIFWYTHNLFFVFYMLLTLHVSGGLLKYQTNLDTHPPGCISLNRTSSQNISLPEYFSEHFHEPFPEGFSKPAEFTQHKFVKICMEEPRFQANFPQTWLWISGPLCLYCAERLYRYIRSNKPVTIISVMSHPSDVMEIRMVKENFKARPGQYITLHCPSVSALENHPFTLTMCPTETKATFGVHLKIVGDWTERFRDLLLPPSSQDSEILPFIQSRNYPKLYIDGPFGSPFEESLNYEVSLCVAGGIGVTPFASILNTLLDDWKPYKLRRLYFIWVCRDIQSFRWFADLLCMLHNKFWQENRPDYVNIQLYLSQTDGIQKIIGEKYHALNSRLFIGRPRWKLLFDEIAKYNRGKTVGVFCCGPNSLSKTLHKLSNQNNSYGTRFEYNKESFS
T3 sequence (P13498 2-195 partner limits assumed): T1 sequence (P13498 2-195 partner limits assumed)
As to the kind of experiment: NOX4 HEK293 overexpression cell-based assay (Amplex Red H2O2). Particulars: HEK293 cells stably overexpressing NOX4, DMSO = 0, GKT137831 = 100; for inhibition at 1 µM: HEK293, 1000 nM; for inhibition at 0.1 µM: HEK293, 100 nM. The method, then:
Extracellular H2O2 measurement using Amplex™ Red Hydrogen Peroxide/Peroxidase Assay Kit (Catalog number: A22188; Invitrogen, Carlsbad, Calif., USA) was used to detect extracellular H2O2 release by HEK293 cells stably overexpressing NOX4. NOX4 clonal cells in log-phase growth were trypsinized, washed, and dispersed thoroughly. Following trypsinization, the cells (3×10^4) were resuspended in 100 μL of 1× Krebs-Ringer phosphate glucose (KRPG) buffer containing various concentrations of GKT137831 or test compounds and incubated at 37° C. for 30 min. Cells were mixed with 100 μL of Amplex Red reagent solution containing 50 μM Amplex Red and 0.1 units/mL of HRP in KRPG buffer; each assay condition was evaluated induplicate. The samples were incubated at 37° C. for 90 mins in the dark, and then centrifuged at 2,500 g for 5 mins. The supernatants were loaded to a 96 well plate, and then measured using a SpectraMax i3 Multiplate reader (Molecular Devices, Sunnyvale, Calif., USA) at 530 nm excitation and 590 nm emission respectively. DMSO and GKT137831 wells were applied as negative and positive controls, and the activities measured were set to 0 and 100, respectively.

Structures are written as SMILES.

As to `COc1cc2[nH]c(-c3ccccc3F)c(O)c(=O)c2cc1OC` [Compound 18], the inhibition (commonly the change of the read-out against control, counted positive when it falls) at 0.1 µM against NOX1 is at least 80%. Further, the inhibition at 1 µM is at least 80% at NOX1, 50 to 79% on NOX2 and 50 to 79% at NOX4. The “% Inhibition NOX2” value at NOX2 (100 nM) was “C (the percent of inhibition of NOX by the compounds ranges from 2000 to 49%)”. Also, the “% Inhibition NOX4” value at NOX4 (100 nM) was “C (the percent of inhibition of NOX by the compounds ranges from 2000 to 49%)”.

As for `COc1ccccc1-c1[nH]c2c(OC)c(OC)c(OC)cc2c(=O)c1O` [Compound 19], the inhibition at 0.1 µM on NOX1 is at least 80%; at NOX2 it was at most 19%; on NOX4, at most 19%. Besides, the inhibition at 1 µM at NOX1 is at least 80%; on NOX2 it was 50 to 79%; against NOX4, 50 to 79%.

Regarding `COc1cc2[nH]c(-c3ccccc3OC(F)(F)F)c(O)c(=O)c2cc1OC` [Compound 20], the figures for the inhibition at 0.1 µM on NOX1 and on NOX2 were at least 80% and 50 to 79%, respectively. This compound also returned an inhibition at 1 µM at NOX1 of at least 80%. The “% Inhibition NOX2” value on NOX2 (1000 nM, 1 µM) was “A (the percent of inhibition of NOX by the compounds is larger than or equals to 80%)”. The “% Inhibition NOX4” value on NOX4 (100 nM) is given as “C (the percent of inhibition of NOX by the compounds ranges from 2000 to 49%)”; on NOX4 (1000 nM, 1 µM), “B (the percent of inhibition of NOX by the compounds ranges from 50% o to 79% o)”.

Take `CCOc1ccccc1-c1[nH]c2cc(OC)c(OC)cc2c(=O)c1O` [Compound 21]: the inhibition at 0.1 µM against NOX1 is at least 80%; on NOX2, at most 19%. In addition, the inhibition at 1 µM is at least 80% against NOX1, 50 to 79% at NOX2 and at least 80% at NOX4. In addition, on NOX4 (100 nM), the “% Inhibition NOX4” value was “C (the percent of inhibition of NOX by the compounds ranges from 2000 to 49%)”.

At NOX1, `CCCOc1ccccc1-c1[nH]c2cc(OC)c(OC)cc2c(=O)c1O` [Compound 22] showed an inhibition at 0.1 µM of at least 80%. Further, the inhibition at 1 µM against NOX1, against NOX2 and at NOX4 was at least 80% throughout. Moreover, the “% Inhibition NOX2” value at NOX2 (100 nM) was “C (the percent of inhibition of NOX by the compounds ranges from 2000 to 49%)”. Moreover, the “% Inhibition NOX4” value at NOX4 (100 nM) was “C (the percent of inhibition of NOX by the compounds ranges from 2000 to 49%)”.

In the case of `COc1cc2[nH]c(-c3ccccc3S(C)(=O)=O)c(O)c(=O)c2cc1OC` [Compound 23], the inhibition at 0.1 µM against NOX1 is at least 80%; against NOX2 it was 50 to 79%; against NOX4, 50 to 79%. The figures for the inhibition at 1 µM at NOX1, at NOX2 and against NOX4 were at least 80%, at least 80% and 50 to 79%, respectively.

Take `COc1cc2[nH]c(-c3ccc(Cl)cc3Cl)c(O)c(=O)c2cc1OC` [Compound 24]: the inhibition at 0.1 µM against NOX1 was at least 80%. The inhibition at 1 µM on NOX1 was at least 80%; at NOX2 it was at least 80%; on NOX4, 50 to 79%. At NOX2 (100 nM, 0.1 µM), the “% Inhibition NOX2” value is “C (the percent of inhibition of NOX by the compounds ranges from 2000 to 49%)”. Further, at NOX4 (100 nM), the “% Inhibition NOX4” value is reported as “C (the percent of inhibition of NOX by the compounds ranges from 2000 to 49%)”.

Regarding `COc1ccccc1-c1[nH]c2cccc(Br)c2c(=O)c1O` [Compound 25], the inhibition at 0.1 µM against NOX1 was 50 to 79%; on NOX2 it was at most 19%; at NOX4 it was at most 19%. The inhibition at 1 µM against NOX1 is at least 80%; against NOX2, 50 to 79%. For the same compound, the “% Inhibition NOX4” value on NOX4 (1000 nM) is listed as “C (the percent of inhibition of NOX by the compounds ranges from 2000 to 49%)”.

For `COc1ccccc1-c1[nH]c2cc3c(cc2c(=O)c1O)OCO3` [Compound 26], the values for the inhibition at 0.1 µM on NOX1 and on NOX2 were at least 80% and 50 to 79%, respectively. Also, the inhibition at 1 µM against NOX1, against NOX2 and against NOX4 was at least 80% each time. The “% Inhibition NOX4” value at NOX4 (100 nM) is recorded as “C (the percent of inhibition of NOX by the compounds ranges from 2000 to 49%)”.
